Laboratory results: paper PMC10353187, “Discovery of a new potent oxindole multi-kinase inhibitor among a series of designed 3-alkenyl-oxindoles with ancillary carbonic anhydrase inhibitory activity as antiproliferative agents” (BMC Chemistry, 2023)

Experiments:
[1] = system: OVCAR-4; test: NCI-60 single-dose antiproliferative assay (SRB); format: cell-based; settings: Homo sapiens; 10 μM single dose; OVCAR-4, Ovarian Cancer; read-out: Cell Growth inhibition Percent
Experimental: (§1) From the newly synthesized compounds, eleven compounds (4c, 4d, 5, 9a, 9b, 11a, 11b, 13b, 13c, 15b, and 15c) were selected by the National Cancer Institute (NCI) Developmental Therapeutics Program (DTP), Bethesda, Maryland, USA for the in vitro anti-proliferative activity evaluation. The selected compounds were examined at 10 μM dose against the NCI 60-cell line panel. This panel consists of nine cell line groups of leukemia, non-small cell lung carcinoma (NSCLC), melanoma, colon, CNS, ovarian, renal, prostate, and breast cancers. The results are reported as mean-graph of the percent growth relative to control and presented as percentage growth inhibition (GI%), furthermore, mean GI% of each compound over all panel cell lines was calculated (Table 1; Additional file 1; S3: In vitro biological activity).
(§2) From the newly synthesized compounds, eleven compounds were selected by the National Cancer Institute (NCI) Developmental Therapeutics Program (DTP), Bethesda, Maryland, USA for the in vitro anti-proliferative activity evaluation (For further details see supplementary materials).
(§3) NCI In-vitro Cancer Screening is a two-phase procedure that starts with the assessment of all compounds against the sixty NCI cell line panel depicting leukemia, NSCLC, CNS cancer, melanoma, prostate cancer, breast cancer, renal cancer, colon cancer and ovarian cancer cell lines at a single point of 10μM. The output from the single-dose screen is reportable as a mean graph.
(§4) The human tumor cell lines of the cancer screening panel were grown in RPMI 1640 medium containing 5% fetal bovine serum and 2 mM L-glutamine. For a typical screening experiment, cells were inoculated into 96 well microtiter plates in […] at plating densities ranging from 5000 to 40,000 cells/well depending on the doubling time of individual cell lines. After cell inoculation, the microtiter plates were incubated at 37 °C, 5% CO2, 95% air and 100% relative humidity for 24 h prior to addition of experimental drugs. After 24 h, two plates of each cell line were fixed in situ with trichloroacetic acid (TCA), to represent a measurement of the cell population for each cell line at the time of drug addition (Tz). Experimental drugs were solubilized in dimethyl sulfoxide at 400-fold the desired final maximum test concentration and stored frozen prior to use. At the time of drug addition, an aliquot of frozen concentrate was thawed and diluted to twice the desired final maximum test concentration with complete medium containing 50 µg/ml gentamicin. Aliquot of 100 µl of the drug dilution was added to the appropriate microtiter wells already containing 100 µl of medium, resulting in the required final drug concentration (10 µM). Triplicate wells were prepared for each individual dose. Following drug addition, the plates were incubated for an additional 48 h at 37 °C, 5% CO2, 95% air, and 100% relative humidity. For adherent cells, the assay was terminated by the addition of cold TCA. Cells were fixed in situ by the gentle addition of 50 µl of cold 50% (w/v) TCA (final concentration, 10% TCA) and incubated for 60 min at 4 °C. The supernatant was discarded, and the plates were washed five times with tap water and air dried. Sulforhodamine B (SRB) solution (100 µl) at 0.4% (w/v) in 1% acetic acid was added to each well, and plates were incubated for 10 min at room temperature. After staining, unbound dye was removed by washing five times with 1% acetic acid and the plates were air dried. Bound stain was subsequently solubilized with 10 mM trizma base, and the absorbance was read on an automated plate reader at a wavelength of 515 nm. For suspension cells, the methodology was the same except that the assay was terminated by fixing settled cells at the bottom of the wells by gently adding 50 µl of 80% TCA (final concentration, 16% TCA). […]

[2] = system: ACHN; test: NCI-60 single-dose antiproliferative assay (SRB); format: cell-based; settings: Homo sapiens, 10 μM single dose, Renal cancer, read-out: Cell Growth inhibition Percent
Experimental: as §1, §2, §3, §4

[3] = system: MDA-MB-231/ATCC; test: NCI-60 single-dose antiproliferative assay (SRB); format: cell-based; settings: Homo sapiens, 10 μM single dose, Breast cancer, read-out: Cell Growth inhibition Percent
Experimental: as §1, §2, §3, §4

[4] = system: LOX IMVI; test: NCI-60 single-dose antiproliferative assay (SRB); format: cell-based; settings: Homo sapiens, 10 μM single dose, Melanoma, read-out: Cell Growth inhibition Percent
Experimental: as §1, §2, §3, §4

[5] = system: HOP-92; test: NCI-60 single-dose antiproliferative assay (SRB); format: cell-based; settings: Homo sapiens; 10 μM single dose; HOP-92, Non-small cell lung cancer; read-out: Cell Growth inhibition Percent
Experimental: as §1, §2, §3, §4

[6] = system: SF-268; test: NCI-60 single-dose antiproliferative assay (SRB); format: cell-based; settings: Homo sapiens; 10 μM single dose; SF-268, CNS cancer; read-out: Cell Growth inhibition Percent
Experimental: as §1, §2, §3, §4

[7] = system: PC-3; test: NCI-60 single-dose antiproliferative assay (SRB); format: cell-based; settings: Homo sapiens; 10 μM single dose; PC-3, Prostate cancer; read-out: Cell Growth inhibition Percent
Experimental: as §1, §2, §3, §4

[8] = system: SNB-75; test: NCI-60 single-dose antiproliferative assay (SRB); format: cell-based; settings: Homo sapiens; 10 μM single dose; SNB-75, CNS cancer; read-out: Cell Growth inhibition Percent
Experimental: as §1, §2, §3, §4

[9] = system: NCI-H23; test: NCI-60 single-dose antiproliferative assay (SRB); format: cell-based; settings: Homo sapiens; 10 μM single dose; NCI-H23, Non-small cell lung cancer; read-out: Cell Growth inhibition Percent
Experimental: as §1, §2, §3, §4

[10] = system: IGROV1; test: NCI-60 single-dose antiproliferative assay (SRB); format: cell-based; settings: Homo sapiens, IGROV-1; 10 μM single dose; IGROV1, Ovarian Cancer; read-out: Cell Growth inhibition Percent
Experimental: as §1, §2, §3, §4

[11] = system: SK-MEL-5; test: NCI-60 single-dose antiproliferative assay (SRB); format: cell-based; settings: Homo sapiens; 10 μM single dose; SK-MEL-5, Melanoma; read-out: Cell Growth inhibition Percent
Experimental: as §1, §2, §3, §4

[12] = system: M14; test: NCI-60 single-dose antiproliferative assay (SRB); format: cell-based; settings: Homo sapiens; 10 μM single dose; M14, Melanoma; read-out: Cell Growth inhibition Percent
Experimental: as §1, §2, §3, §4

[13] = system: MCF7; test: NCI-60 single-dose antiproliferative assay (SRB); format: cell-based; settings: Homo sapiens; 10 μM single dose; MCF7, Breast cancer; read-out: Cell Growth inhibition Percent
Experimental: as §1, §2, §3, §4

[14] = system: CAKI-1; test: NCI-60 single-dose antiproliferative assay (SRB); format: cell-based; settings: Homo sapiens; 10 μM single dose; CAKI-1, Renal cancer; read-out: Cell Growth inhibition Percent
Experimental: as §1, §2, §3, §4

[15] = system: EKVX; test: NCI-60 single-dose antiproliferative assay (SRB); format: cell-based; settings: Homo sapiens, 10 μM single dose, Non-small cell lung cancer, read-out: Cell Growth inhibition Percent
Experimental: as §1, §2, §3, §4

[16] = system: HOP-62; test: NCI-60 single-dose antiproliferative assay (SRB); format: cell-based; settings: Homo sapiens; 10 μM single dose; HOP-62, Non-small cell lung cancer; read-out: Cell Growth inhibition Percent
Experimental: as §1, §2, §3, §4

[17] = system: SR; test: NCI-60 single-dose antiproliferative assay (SRB); format: cell-based; settings: Homo sapiens, 10 μM single dose, Leukemia, read-out: Cell Growth inhibition Percent
Experimental: as §1, §2, §3, §4

[18] = system: NCI 60 cancer cell lines; test: NCI-60 single-dose antiproliferative assay, mean over panel; format: cell-based; settings: Homo sapiens; 10 μM single dose; mean over all NCI panel cell lines; read-out: MEAN % Growth inhibition
Experimental: as §1, §2, §3, §4

In the case of `O=C1Nc2ccccc2C1=CNc1ccc(C(=O)Nc2ccc(S(=O)(=O)Nc3ncccn3)cc2)cc1` [Compound 9b, 4-{[(2-Oxoindolin-3-ylidene)methyl]amino}-N-{4-[N-(pyrimidin-2-yl)sulfamoyl]phenyl}benzamide], the melting point was greater than 300 °C, the inhibition at 10 µM [1] was 7.67% and the inhibition at 10 µM [2] was 10.5%. The inhibition at 10 µM [3] was 3.83%, the inhibition at 10 µM [4] was 7.22% and the inhibition at 10 µM [5] was 4.65%. For the same compound, the inhibition at 10 µM [6] was 3.48%, the inhibition at 10 µM [7] was 7.1% and the inhibition at 10 µM [8] was 31.3%. It also gave an inhibition at 10 µM [9] of 9.28%, an inhibition at 10 µM [10] of 21.3% and an inhibition at 10 µM [11] of 6.95%. It also gave an inhibition at 10 µM [12] of 1.44%, an inhibition at 10 µM [13] of 4.97% and an inhibition at 10 µM [14] of 27.6%. The inhibition at 10 µM [15] was 38.5%, the inhibition at 10 µM [16] was 27.7% and the inhibition at 10 µM [17] was 9.02%. For the same compound, the inhibition at 10 µM [18] was 2.55%.
